Test results as given in PMC12748266, “Testing antimicrobial peptides inhibiting protein synthesis in living E. coli and K. pneumoniae using bio-orthogonal non-canonical amino-acid tagging” (Frontiers in Microbiology, 2025).
Converted amounts (≈) assume the structure as drawn. No end group written: not given here.

How the values were obtained:
E. coli ATCC 25922 = experiment: Cell membrane permeabilization, propidium iodide flow cytometry; format: cell-based, Escherichia coli; conditions: compound at its MIC, 40 min, 5 × 10^6 CFU/mL, supplemented M9, mean of n = 3
Description: Membrane permeabilization of bacteria was then assessed by incubating bacteria at 37 °C, in a final volume of 1 mL, with varying concentrations of each peptide or antibiotic used for the BONCAT assay. 5 min before the ending of the selected incubation time (40 min), propidium iodide probe was added to the samples to a final concentration of 10 μg/mL before analysis using a flow cytometer. A positive control consisted of E. coli cells dehydrated with ethanol (as described above), while untreated cells were used as negative control. The fluorescence of untreated cells was used to establish the gating for positive PI-stained cells. Fixed bacterial cells, subjected to the click chemistry reaction to link the Alexa Fluor azide 488 probe, were analysed by flow cytometry and, among the gates-selected ones, only those that tested positive for Propidium Iodide, and thus permeabilized, were considered for the calculation of the mean fluorescence intensity (MFI) of the Alexa Fluor azide 488.
Samples were analyzed by an Attune NxT® (ThermoFisher) equipped with a blue laser (488 nm) and photomultiplier tubes (PMTs) BL1 (525/50) and BL3 (695/40) to collect fluorescence. All parameters were set in logarithmic scale and the signals were recorded as Area. Forward scattering (FSC) was set to 300 mV, side scattering (SSC) to 350 mV and thresholds to 0.2 for FSC and 0.5 for SSC. The compensation matrix was performed according to the tool software. Hierarchical gates and acquisition flow rate (200 μL/min) were set to avoid coincident events. The files were saved as FCS 3.1 and analysed by FCS Express De Novo software v7. Flow cytometry data are presented as means ± SD from three independent experiments (n = 3).

[1] = test system: K. pneumoniae ATCC 700603; experiment: microbe, parasite or virus in culture; format: cell-based, Klebsiella pneumoniae; conditions: for MIC: 18 h, 37 °C, mode of at least three experiments; for MIC for K. pneumoniae relative to E. coli: supplemented M9, 5 × 10^6 cells/mL
Description: […] […] Serially two-fold dilution (1:1) were performed across subsequent wells to a final volume of 50 μL. […] […] The plates were sealed with parafilm to minimize evaporation and incubated at 37 °C for 18 h. The minimum inhibitory concentration (MIC) was visually determined as the lowest peptide concentration in a well with no visible bacterial growth. Data are reported as the mode of at least three independent experiments.

[2] = test system: K. pneumoniae ATCC 700603; experiment: BONCAT: HPG incorporation into newly synthesized proteins, flow cytometry; format: cell-based, Klebsiella pneumoniae; conditions: compound at MIC; for Fluorescence Intensity (% of Control): 10 min pre-incubation then 30 min HPG, untreated = 100%, mean, n ≥ 3
Description: We used a modified protocol from [Lindivat et al. (2020)]. Briefly, overnight cultures of E. coli ATCC 25922 or K. pneumoniae ATCC 700603, prepared as described above, were diluted to a final concentration of 5×10^6 CFU/mL and allowed to adjust for 30 min at 37 °C. The culture was then incubated at 37 °C in the dark for 10 or 30 min in the presence or absence of each peptide or antibiotic at various concentrations, with a final volume of 1 mL. At this point, only in certain specified experimental assays, the compounds were removed from the supernatant by centrifugation (16,000 × g for 5 min) and bacteria were washed and resuspended in fresh supplemented M9 medium. Then, 32 μL of a 500 μM homopropargylglycine (HPG) solution were added to each sample, resulting in a final concentration of 16 μM in a finale volume of 1 mL. Also included in each assay were two untreated controls containing only bacteria and bacteria treated with 16 μM HPG alone, respectively. All samples were then incubated at 37 °C in the dark for 30 min. After incubation, samples were washed once with 1X filtered Phosphate Buffered Saline (PBS) (centrifuged at 16,000 x g for 5 min) and resuspended in PBS. After washing, samples were fixed with formaldehyde (Sigma Aldrich, USA) to a final concentration of 3% in 1 mL for 1 h at 25 °C. Subsequently, the samples were centrifuged at 16,000 x g for 5 min and resuspended in 1 mL of PBS. If not analysed immediately, the fixed samples were stored at 4 °C prior to performing the click chemistry reaction. Samples were centrifugated at 16,000 x g for 5 min and bacteria cells were dehydrated by ethanol that was added sequentially to achieve a final concentration of 50% (v/v) (3 min of incubation), 80% (v/v) (3 min of incubation), and 95% (v/v) (3 min of incubation). After dehydration, the samples were centrifugated (16,000 × g, 5 min) and resuspended in PBS. For cell analysis by SDS-PAGE, the following variations were implemented: bacterial cells were diluted in supplemented M9 medium to a final density of ~ 1 × 10^9 CFU/mL, and HPG was added to the samples at a final concentration of 160 μM. Bacteria were incubated with HPG for 0, 15, 30, 60, or 120 min at 37 °C in the dark.
The click reaction was carried out according to [Rostovtsev et al. (2002)]. 15 μL of a pre-mix solution (prepared as described above) were added to each sample containing fixed bacteria that had incorporated HPG (30 μL of pre-mix solution in case of samples prepared for SDS-PAGE analysis), resulting in the following final concentrations in each sample: 0.1 mM copper sulfate, 0.5 mM Tris (3-hydroxypropyltriazolylmethyl)amine (THPTA), and 2.5 μM Alexa Fluor azide 488. Additionally, 50 μL of freshly prepared 100 mM sodium ascorbate and 50 μL of 100 mM aminoguanidine were added (100 μL in case of samples prepared for SDS-PAGE analysis), bringing the final volume to 1 mL. The samples were gently inverted once to mix and incubated for 30 min in the dark at 25 °C. […]
An overnight culture of E. coli ATCC 25922, or of K. pneumoniae ATCC 700603, prepared as described above, was diluted to a final concentration of 5 × 10^6 CFU/mL and allowed to adjust for 30 min at 37 °C under shaking. Membrane permeabilization of bacteria was then assessed by incubating bacteria at 37 °C, in a final volume of 1 mL, with varying concentrations of each peptide or antibiotic used for the BONCAT assay. […] The fluorescence of untreated cells was used to establish the gating for positive PI-stained cells. […]

| Compound | Membrane permeabilization (% PI +cells) (E. coli ATCC 25922) [%] | Membrane permeabilization (% PI +cells) (E. coli ATCC 25922; listed as Chloramphenicol) [%] | MIC ([1]; Klebsiella pneumoniae, ATCC700603, supplemented M9 medium, 5 × 10^6 CFU/mL, visual) [µM] | Reduction in fluorescence ([2]; 10 min + 30 min HPG) | Fluorescence Intensity (% of Control) [2] | Membrane permeabilization (% PI +cells) (E. coli ATCC 25922; listed as Rifampin) [%] | MIC ([1]; Mueller Hinton, 2,5x10^5 CFU/mL) [µM] | MIC for K. pneumoniae relative to E. coli [1] [fold] | MIC ([1]; supplemented M9 medium, 5 × 10^6 CFU/mL, visual) [µM] |
| --- | --- | --- | --- | --- | --- | --- | --- | --- | --- |
| O=C(N[C@H](CO)[C@H](O)c1ccc([N+](=O)[O-])cc1)C(Cl)Cl [CHL, Chloramphenicol] | <1 | 0 | – | – | – | – | – | – | – |
| CO[C@H]1/C=C/O[C@@]2(C)Oc3c(C)c(O)c4c(O)c(c(/C=N/N5CCN(C)CC5)c(O)c4c3C2=O)NC(=O)/C(C)=C\C=C\[C@H](C)[C@H](O)[C@@H](C)[C@@H](O)[C@@H](C)[C@H](OC(C)=O)[C@@H]1C [RIF, Rifampicin] | <1 | – | 16 (≈ 13.2 µg/mL) | did not affect fluorescence | 87 % of Control | 0 | – | – | – |
| RRIRPRPPRLPRPRPR [Bac7(1–16)] | <1 | – | – | – | 18 % of Control | – | 4 | 4 | 4 |
| RRIRPRPPRLPRPRPRPLPFPRPGPRPIPRPLPFP [Bac7(1–35)] | <1 | – | – | – | 6 % of Control | – | – | 4 | – |
